Reference: ChEMBL document CHEMBL4308841, “Synthesis, in vitro antiproliferative activity, and kinase inhibitory effects of pyrazole-containing diarylureas and diarylamides” (Eur J Med Chem, 2018)

Experiments:
[1] = test system: NCI-H226; assay: Growth inhibition of human NCI-H226 cells incubated for 48 hrs by sulforhodamine B assay; assay type: functional, cell-based; settings: NCI-H226, 48 h
[2] = test system: HCT-116; assay: Growth inhibition of human HCT116 cells incubated for 48 hrs by sulforhodamine B assay; assay type: functional, cell-based; settings: HCT-116, 48 h
[3] = test system: KM12; assay: Growth inhibition of human KM12 cells incubated for 48 hrs by sulforhodamine B assay; assay type: functional, cell-based; settings: KM12, 48 h
[4] = test system: SF-268; assay: Growth inhibition of human SF268 cells incubated for 48 hrs by sulforhodamine B assay; assay type: functional, cell-based; settings: SF-268, 48 h
[5] = test system: UACC-62; assay: Growth inhibition of human UACC62 cells incubated for 48 hrs by sulforhodamine B assay; assay type: functional, cell-based; settings: UACC-62, 48 h
[6] = test system: ACHN; assay: Growth inhibition of human ACHN cells incubated for 48 hrs by sulforhodamine B assay; assay type: functional, cell-based
[7] = test system: CAKI-1; assay: Growth inhibition of human Caki1 cells incubated for 48 hrs by sulforhodamine B assay; assay type: functional, cell-based; settings: CAKI-1, 48 h
[8] = test system: DU-145; assay: Growth inhibition of human DU145 cells incubated for 48 hrs by sulforhodamine B assay; assay type: functional, cell-based; settings: DU-145, 48 h
[9] = test system: NCI-H23; assay: Growth inhibition of human NCI-H23 cells assessed as cell growth at 0.01 uM incubated for 48 hrs by sulforhodamine B assay relative to control; assay type: functional; settings: NCI-H23, 48 h, read-out: Activity
[10] = test system: SNB-75; assay: Growth inhibition of human SNB75 cells assessed as cell growth at 0.01 uM incubated for 48 hrs by sulforhodamine B assay relative to control; assay type: functional; settings: SNB-75, 48 h, read-out: Activity
[11] = test system: SK-MEL-5; assay: Growth inhibition of human SK-MEL-5 cells assessed as cell growth at 0.01 uM incubated for 48 hrs by sulforhodamine B assay relative to control; assay type: functional; settings: SK-MEL-5, 48 h, read-out: Activity
[12] = test system: MDA-MB-468; assay: Growth inhibition of human MDA-MB-468 cells assessed as cell growth at 0.01 uM incubated for 48 hrs by sulforhodamine B assay relative to control; assay type: functional; settings: MDA-MB-468, 48 h, read-out: Activity
[13] = test system: NCI-H226; assay: Growth inhibition of human NCI-H226 cells assessed as cell growth at 0.1 uM incubated for 48 hrs by sulforhodamine B assay relative to control; assay type: functional; settings: NCI-H226, 48 h, read-out: Activity
[14] = test system: NCI-H23; assay: Growth inhibition of human NCI-H23 cells assessed as cell growth at 0.1 uM incubated for 48 hrs by sulforhodamine B assay relative to control; assay type: functional; settings: NCI-H23, 48 h, read-out: Activity
[15] = test system: U-251; assay: Growth inhibition of human U251 cells assessed as cell growth at 0.1 uM incubated for 48 hrs by sulforhodamine B assay relative to control; assay type: functional; settings: U-251, 48 h, read-out: Activity
[16] = test system: SK-MEL-28; assay: Growth inhibition of human SK-MEL-28 cells assessed as cell growth at 0.1 uM incubated for 48 hrs by sulforhodamine B assay relative to control; assay type: functional; settings: SK-MEL-28, 48 h, read-out: Activity
[17] = test system: OVCAR-8; assay: Growth inhibition of human OVCAR8 cells assessed as cell growth at 0.1 uM incubated for 48 hrs by sulforhodamine B assay relative to control; assay type: functional; settings: OVCAR-8, 48 h, read-out: Activity
[18] = test system: SNB-19; assay: Growth inhibition of human SNB19 cells assessed as cell growth at 1 uM incubated for 48 hrs by sulforhodamine B assay relative to control; assay type: functional; settings: SNB-19, 48 h, read-out: Activity
[19] = test system: UACC-62; assay: Growth inhibition of human UACC62 cells assessed as cell growth at 1 uM incubated for 48 hrs by sulforhodamine B assay relative to control; assay type: functional; settings: UACC-62, 48 h, read-out: Activity
[20] = test system: OVCAR-4; assay: Growth inhibition of human OVCAR4 cells assessed as cell growth at 1 uM incubated for 48 hrs by sulforhodamine B assay relative to control; assay type: functional; settings: OVCAR-4, 48 h, read-out: Activity
[21] = test system: RXF 393; assay: Growth inhibition of human RXF393 cells assessed as cell growth at 1 uM incubated for 48 hrs by sulforhodamine B assay relative to control; assay type: functional; settings: RXF 393, 48 h, read-out: Activity
[22] = test system: SN12C; assay: Growth inhibition of human SN12C cells assessed as cell growth at 1 uM incubated for 48 hrs by sulforhodamine B assay relative to control; assay type: functional; settings: read-out: Activity
[23] = test system: RPMI-8226; assay: Growth inhibition of human RPMI8226 cells assessed as cell growth at 100 uM incubated for 48 hrs by sulforhodamine B assay relative to control; assay type: functional; settings: RPMI-8226, 48 h, read-out: Activity
[24] = test system: SR; assay: Growth inhibition of human SR cells assessed as cell growth at 100 uM incubated for 48 hrs by sulforhodamine B assay relative to control; assay type: functional; settings: read-out: Activity
[25] = test system: UACC-62; assay: Growth inhibition of human UACC62 cells assessed as cell growth at 100 uM incubated for 48 hrs by sulforhodamine B assay relative to control; assay type: functional; settings: UACC-62, 48 h, read-out: Activity
[26] = test system: A498; assay: Growth inhibition of human A498 cells assessed as cell growth at 100 uM incubated for 48 hrs by sulforhodamine B assay relative to control; assay type: functional; settings: A498, 48 h, read-out: Activity
[27] = test system: PC-3; assay: Growth inhibition of human PC3 cells assessed as cell growth at 100 uM incubated for 48 hrs by sulforhodamine B assay relative to control; assay type: functional; settings: PC-3, 48 h, read-out: Activity
[28] = read-out: LC50 (the source's name)
[29] = read-out: pLC50 (the source's name) (converted)

O=C(Nc1cccc(-n2cc(-c3ccncc3)c(-c3cc(O)cc(Cl)c3)n2)c1)c1cc(C(F)(F)F)cc(C(F)(F)F)c1
GI50 ([1]; read-out: GI50): 1.51 µM
LC50 ([1]; read-out: LC50): > 100 µM
TGI ([1]; read-out: TGI): > 100 µM
GI50 ([1]; read-out: pGI50 (converted)): 16.2 µM
LC50 ([1]; read-out: pLC50 (converted)): > 100 µM
TGI ([1]; read-out: pTGI (converted)): > 100 µM
IC50 [2]: 3.23 µM
GI50 ([2]; read-out: GI50): 3.23 µM
CC50 [2, 28]: > 100 µM
TGI ([2]; read-out: TGI): > 100 µM
GI50 ([2]; read-out: pGI50 (converted)): 3.24 µM
CC50 [2, 29]: > 100 µM
TGI ([2]; read-out: pTGI (converted)): > 100 µM
GI50 ([3]; read-out: GI50): 1.96 µM
CC50 [3, 28]: > 100 µM
GI50 ([3]; read-out: pGI50 (converted)): 1.95 µM
CC50 [3, 29]: > 100 µM
GI50 ([4]; read-out: GI50): 6.38 µM
CC50 [4, 28]: > 100 µM
TGI ([4]; read-out: TGI): > 100 µM
GI50 ([4]; read-out: pGI50 (converted)): 6.46 µM
CC50 [4, 29]: > 100 µM
TGI ([4]; read-out: pTGI (converted)): > 100 µM
IC50 [5]: 3.79 µM
GI50 ([5]; read-out: GI50): 3.79 µM
CC50 [5, 28]: > 100 µM
TGI ([5]; read-out: TGI): 22.4 µM
GI50 ([5]; read-out: pGI50 (converted)): 3.8 µM
CC50 [5, 29]: > 100 µM
TGI ([5]; read-out: pTGI (converted)): 28.2 µM
GI50 ([6]; read-out: GI50): 4.96 µM
CC50 [6, 28]: > 100 µM
TGI ([6]; read-out: TGI): > 100 µM
GI50 ([6]; read-out: pGI50 (converted)): 5.01 µM
CC50 [6, 29]: > 100 µM
TGI ([6]; read-out: pTGI (converted)): > 100 µM
GI50 ([7]; read-out: GI50): 3.57 µM
CC50 [7, 28]: > 100 µM
TGI ([7]; read-out: TGI): > 100 µM
GI50 ([7]; read-out: pGI50 (converted)): 3.63 µM
CC50 [7, 29]: > 100 µM
TGI ([7]; read-out: pTGI (converted)): > 100 µM
GI50 ([8]; read-out: GI50): 5.1 µM
CC50 [8, 28]: > 100 µM
TGI ([8]; read-out: TGI): > 100 µM
GI50 ([8]; read-out: pGI50 (converted)): 5.25 µM
CC50 [8, 29]: > 100 µM
TGI ([8]; read-out: pTGI (converted)): > 100 µM
growth at 0.01 µM [9]: 94%
growth at 0.01 µM [10]: 58%
growth at 0.01 µM [11]: 97%
growth at 0.01 µM [12]: 91%
growth at 0.1 µM [13]: 95%
growth at 0.1 µM [14]: 95%
growth at 0.1 µM [15]: 93%
growth at 0.1 µM [16]: 103%
growth at 0.1 µM [17]: 100%
growth at 1 µM [18]: 105%
growth at 1 µM [19]: 92%
growth at 1 µM [20]: 101%
growth at 1 µM [21]: 78%
growth at 1 µM [22]: 91%
growth at 100 µM [23]: -4%
growth at 100 µM [24]: -18%
growth at 100 µM [25]: -35%
growth at 100 µM [26]: -2%
growth at 100 µM [27]: -8%
